This assay has as its system NCI-H460. The assay can be described thus: Cytotoxicity against human NCI-H460 cells assessed as cell survival at 0.9 uM measured after 48 hrs by MTT assay. In kind it is functional. To be noted: read-out: Activity. (In general: Tetrazolium assays rely on reduction of a dye to a coloured formazan, in cell work by metabolically active cells.)
Consider `C#CCCC[C@@H]1NC(=O)[C@H](C(C)C)N(C)C(=O)[C@H](COC)N(C)C(=O)[C@H](C(C)C)NC(=O)[C@H](COC)N(C)C(=O)[C@H](C)N(C)C(=O)[C@H](C(C)C)N(C)C(=O)[C@@H]2CCCN2C(=O)[C@H](C(C)C)NC(=O)[C@H]([C@@H](C)CC)N(C)C(=O)[C@H](C(C)C)N(C)C(=O)[C@@H](C(C)C)OC(=O)[C@H]1C`, for which the viability at 0.9 µM amounted to 97%.

For the compound `C#CCCC[C@@H]1NC(=O)[C@H](C(C)C)N(C)C(=O)[C@H](C)N(C)C(=O)[C@H](COC)NC(=O)[C@H](C(C)C)N(C)C(=O)[C@H](CC(C)C)N(C)C(=O)[C@@H]2CCCN2C(=O)[C@H](C(C)C)NC(=O)[C@H](COC)N(C)C(=O)[C@H](C(C)C)NC(=O)[C@@H](C(C)C)OC(=O)[C@H]1C`, the viability at 0.9 µM came out at 33%.

Consider `C/C=C(\NC(=O)C(NC(=O)C(C)C(O)CCCCCCCCCCCCC(=O)CCCC)C(C)O)C(=O)NC(C)c1nc(C(=O)NC(C)C(C)=O)cs1` (stereo not drawn), for which the viability at 0.9 µM was determined as 78%.
